Assays:
[1] = test system: somatic cells from ovaries of mice at day 13 of age; assay: cGMP and cAMP production by cultured somatic cells; type: cell-based; details: day 13 mice, 2 h
Method: (§1) Stimulation of cGMP, but not cAMP, production by cultured ovarian somatic cells: Because the NPRB receptors mediated cGMP production stimulated by the CNP ligand, we isolated somatic cells from ovaries of mice at day 13 of age and granulosa cells from mice at day 21 of age before treatment with increasing doses of CNP or a high dose (30 nM) of ANP for 2 h. Media content of both cGMP and cAMP were determined by RIA.

[2] = test system: granulosa cells from mice at day 21 of age; assay: cGMP and cAMP production by cultured granulosa cells; type: cell-based; details: day 21 mice, 2 h
Method: as §1

preantral follicles [3] = assay: Preantral follicle culture; type: cell-based, mice
Description: CNP treatment promoted the growth of preantral follicles and cultured ovarian explants: Preantral follicles (125-135 um in diameter) were isolated from ovaries of mice at day 13 of age and treated with different hormones for four days with daily monitoring of follicle diameters. […] In contrast, treatment with ANP was ineffective.
Dissection follicles of different sizes and culturing of preantral follicles: For RT-PCR analyses, early secondary follicles of 90-140 um in diameters were isolated from mice at day 13 of age whereas antral follicles (300-400 um in diameter) were isolated from prepubertal mice at day 23 of age. Preovulatory follicles (500-600 um in diameter) were isolated from prepubertal mice treated with eCG (5 IU). For follicle cultures, preantral follicles (125-145 um in diameter) were isolated from mice at day 13 of age and cultured individually in 96 well plates containing alpha-MEM (100 ul/well) with penicillin and streptomycin together with insulin, transferrin and selenium. […] The media were changed every two days and follicle growth was monitored daily by measuring follicle diameters.

ovaries from day 10 mice = assay: Ovarian explant cultures treated with CNP and/or FSH; type: cell-based; details: 4 days culture
Method: Ovarian explant cultures: Ovaries from day 10 mice were placed on culture plate inserts (Millipore, Bedford, Mass.) and cultured in 400 μl of DMEM/F12 containing 0.1% BSA (Sigma), 0.1% Albumax II, insulin-transferrin-selenium, 0.05 mg/ml L-ascorbic acid and penicillin-streptomycin under the membrane insert to cover ovaries with a thin layer of medium. […] Some explants were also treated with a pan-specific protein kinase G inhibitor, Rp-8-Br-PET-cGMPS (BioLog, Bremen, Germany). At the end of culture, ovaries were fixed in Bouin's solution, paraffin embedded, and cut into continuous sections before staining with hematoxylin and eosin.

preantral follicles [4] = assay: In vivo treatment of juvenile mice (day 13) with CNP followed by eCG/hCG; details: day 13 mice
Method: In vivo treatment with CNP promoted follicle development for ovulation and subsequent pregnancy in juvenile, prepubertal, and adult mice: To test the ability CNP to stimulate preantral follicle development in vivo, juvenile mice at day 13 of age were treated i.p. with CNP daily for 4 days. This was followed by a single i.p. injection of eCG for 2 more days before determination of ovarian weight. […] Some of these animals were further treated with an ovulatory dose of hCG to check ovulation efficiency.
(§2) In vivo treatment with CNP, ovulation, and pregnancy: Infantile mice at day 13 of age were treated with CNP (20 ug/kg body weight) i.p. daily for 4 days. This was followed by a single injection of eCG (5 IU) for 2 days to stimulate penultimate follicle maturation before collection of ovaries for weighting and histological analyses. Some animals were further treated with an ovulatory dose (5 IU) of hCG and oocytes in oviducts were monitored at 16 h later to evaluate ovulation efficiency. To test the effects of CNP on early antral follicle growth, prepubertal mice at day 21 of age were treated intraperitoneally with CNP (50 ug/kg body weight) daily for four days to stimulate preovulatory follicle development, followed by the injection of an ovulatory dose (2.5 IU) of hCG. At 16 h later, number of ovulated oocytes was determined. Mature oocytes obtained from CNP-pretreated animals were used for in vitro fertilization. Sperm from CD1 male mice (10-12 weeks old) were collected into human tubal fluid media (Millipore) and incubated for 1 h at 37 C. Oocytes were fertilized with sperm (2-3×10^5/ml) for 6 h and inseminated oocytes were transfer into KSOM-AA medium (Millipore) to allow development into blastocysts. Some of the CNP-pretreated females were mated with fertile males for the monitoring of pregnancy and the delivery of pups.

early antral follicles = assay: In vivo treatment of prepubertal mice (day 21) with CNP followed by hCG, in vitro fertilization, mating
Method: To further test the ability of CNP to stimulate the development of early antral follicles to the preovulatory stage, prepubertal mice at day 21 days of age were treated i.p. with CNP daily for 4 days followed by a single injection of an ovulatory dose of hCG. At […] after hCG treatment, the number of ovulated mature oocytes were determined.
We further tested if ovulated oocytes retrieved after CNP pretreatment are capable of being fertilized. Oocytes were obtained from oviducts of CNP-pretreated prepubertal mice after hCG treatment and used for in vitro fertilization. We used oocytes obtained from prepubertal mice treated sequential with eCG (2 days) and hCG (16 h) as controls. […] Some prepubertal females pretreated with CNP followed by hCG to induce ovulation were mated with fertile males.
as §2

[5] = test system: human ovarian cortical fragments; assay: Xenografts of human ovarian cortical fragments; type: in vivo
[6] = Observation of abnormalities after 4 days of CNP treatment; type: in vivo, mice; details: present dosages and injection protocols
Description: CNP acts exclusively through NPRB whereas ANP and BNP act through NPRA. […] The apparent lack of side effects using the present low doses of CNP is consistent with earlier reports showing minimal cardiac and renal actions using physiological concentrations of CNP.

[7] = short term infusion in humans, supraphysiological levels in plasma; cited from earlier work

Substance: CNP: 22 amino acid peptide cleaved from NPPC precursor; activates natriuretic peptide receptor-B (NPRB)
- cAMP production [1]: no changes in cAMP production
- Media content of cGMP ([1]; ANP 30 nM): dose-dependent increases in media content of cGMP
- cAMP production [2]: no changes in cAMP production
- Media content of cGMP ([2]; ANP 30 nM): dose-dependent increases in media content of cGMP
- Follicle growth, combined treatment with CNP and FSH (preantral follicles [3]; FSH 25 ng/ml): additive increases in follicle growth
- Follicle size compared with 8-bromo-cGMP (preantral follicles [3]; four days culture): comparable
- Follicle size (diameter) (preantral follicles [3]; preantral follicles of day 13 mice, four days): dose- and time-dependent increases in follicle size
- Development of preantral follicles (histological analyses) (ovaries from day 10 mice): promoted the development of preantral follicles
- Ovarian weights of explants, both CNP and FSH included (ovaries from day 10 mice; combined with FSH): additive increases
- Ovarian weights of explants (ovaries from day 10 mice; day 10 ovaries): dose-dependent increases in ovarian weights
- Ovulated oocytes in the oviducts vs controls (preantral follicles [4]; CNP, then eCG and hCG): higher numbers of ovulated oocyte
- Increase in ovarian weight (preantral follicles [4]; i.p. 20 ug/kg daily for 4 days, then eCG 2 days): 56%
- Development of antral follicles (histological analyses) (preantral follicles [4]; i.p. daily for 4 days, then eCG): increases in the development of antral follicles
- Number of ovulated oocytes induced by hCG vs saline (early antral follicles; day 21 mice, 18 h after hCG): an increase in the number of ovulated oocytes
- Ovarian weight (early antral follicles; day 21 mice, i.p. 50 ug/kg daily for 4 days, then hCG): increased ovarian weight
- Development of fertilized oocytes to the blastocyst stage vs control oocytes (eCG-hCG) (early antral follicles; in vitro fertilization of oocytes of CNP-pretreated prepubertal mice): same efficiency
- Pregnancy after mating with fertile males (early antral follicles; prepubertal females pretreated with CNP followed by hCG): Successful pregnancy was demonstrated followed by the delivery of healthy pups
- Follicle growth as revealed by follicle counting [5]: stimulated follicle growth
- Abnormalities following treatment [6]: did not observe abnormalities
- Vasodepressor or natriuretic action [7]: not vasodepressor or natriuretic

From patent US10792311B2, “Stimulation of ovarian follicle development and oocyte maturation” (The Board of Trustees of the Leland Stanford Junior …, priority 2011, dated 2020)
